The test system of one test is primary HSCs. Put plainly: Protection of primary HSCs from DMSO cytotoxicity. As to conditions: DBZIM 100 μM, TDBZIM 50 μM. It counts as cell-based, Wistar rat. The protocol:
FIG. 5. DBZIM and TDBZIM protected primary HSC cells against oxidative stress induced by 0.2% (v/v) of DMSO. (a) Optical images of cells treated with IMSs for 26 and 93 h. Scale bar=60 μm. 0.2% (v/v) of DMSO induced oxidative stress by depleting the total GSH level (b), inducing the GSSG level (c), reducing the GSH/GSSG ratio (d), and inducing GPX (e), CAT (f) and SOD (g) activity levels. The data were presented as mean and SEM, N=6, *^cP<0.005, and *^dP<0.0005; when compared to the untreated sample.
The isolation of primary HSCs from Wistar rat liver was performed primarily following the method provided in a previous report (Weiskirchen et al. 2005). Briefly, the supernatant of cell suspension after hepatocyte removal was washed and re-suspended in 9.5 ml of Gey's balance salt solution (GBSS), and mixed with 8 ml of 28.7% (w/v) Histodenz in GBSS. The gradient was prepared by laying the cell suspension underneath 6 ml of GBSS, and centrifuged in Histodenz gradient at 1400×g for 20 min. The stellate cells were separated into a fuzzy band just above the interface of the Histodenz solution and the aqueous buffer. The stellate cell band was harvested, washed, and 1×10^6 cells/well were seeded in a 6-well culture plate in Dulbecco modified Eagle's medium (DMEM) supplemented with 10% fetal bovine serum (FBS). The viability of the HSCs was >95% as determined by trypan blue exclusion staining, and the purity of the HSCs was >90% as assessed by glial fibrillary acidic protein (GFAP) positive staining in >200 cells counted. Primary HSCs were routinely cultured in DMEM with 10% FBS in a humidified CO2 incubator at 37° C., and split at 1:4 ratio by trypsinization (0.05% trypsin/0.53 mM ethylenediaminetetraacetic acid (EDTA)) when they grew to confluency. The HSC-T6 cell line was kindly provided by Dr. Scott Friedman of Mount Sinai School of Medicine, New York. A stable T6/GFAP-LacZ clonal cell line was established as previously reported (Maubach et al. 2006). HSC-T6 and T6/GFAP-LacZ cells were cultured in the same conditions as the primary HSCs.

For the next test, the system named is IL-6. In words: Real-time RT-PCR of IL-6 mRNA in HSC T6 cells. The test is classed as cell-based, rat. As to conditions: for inhibition of IL-6 transcription: 48 h. As for the experimental part:
FIG. 10. DBZIM and TDBZIM suppressed IL-6 mRNA. HSC T6 cells were incubated with DBZIM (1, 10, 100 and 300 μM) and (b) TDBZIM (1, 10 and 100 μM) for 48 h for the dosage-dependent study, and (c) with DBZIM (100 μM) and TDBZIM (100 μM) for 8, 24 and 48 h for the time-dependent study. The expression level of IL-6 mRNA was quantified with real-time RT-PCR. The data were presented as mean and SEM, N=6, *^bP<0.01, *^cP<0.005, and *^dP<0.0005, when compared to the vehicle control.
Total RNA was isolated using NucleoSpin RNAII isolation kit (Nacherey & Nagel, Germany), and quantified by ND-100 spectrophotometer (Nanodrop Technologies, DE, USA). The details of real-time RT-PCR were reported elsewhere (Zhang et al. 2006). Briefly, it was a two-step real-time RT-PCR using Taqman chemistry. Total RNA was first reverse transcribed to cDNA, and real-time PCR was run and detected in ABI 7500 Fast Real-Time PCR System (Applied Biosystems, CA, USA). Primers and probes for rat GFAP, SMAA, collagen Ia1, fibronectin, TGF-β1, TGF-β receptor I (TGFβ RI) and IL-6 were ordered from Taqman's assay-on-demand database. Rat β-actin was used as normalization gene, and its expression level was constant (CT difference was <±0.5) throughout the experimental settings in this study. Relative quantification of target mRNA was calculated using comparative threshold cycle method (ΔΔCT) as described in User Bulletin #2 (ABI Prism 7700 Sequence Detection System). Relative quantification was given by 2^−ΔΔCT to express the up-regulation or down regulation of the target gene under the treatments compared to the control.
In general terms: Real-time PCR tracks product formation cycle by cycle.

A further test concerns GST. Put plainly: Glutathione S-transferase (GST) assay in treated cells. The test is classed as cell-based, rat. As to conditions: for enhancement of GST activity: 48 h. The protocol:
FIG. 4. Effect of DBZIM and TDBZIM on GPx, CAT, SOD and GST. DBZIM affected (a) GPx activity and (c) CAT activity in a dosage-dependent manner. TDBZIM suppressed (b) GPx activity and (d) CAT activity. (e) DBZIM and (f) TDBZIM had little effect on SOD activity. (g) DBZIM induced GST activity. HSC T6 cells were treated with compounds of various concentrations for 48 h, and homogenized by sonication (60% frequency for 30 s) in PBS (pH 7.4, 1 mM of EDTA) for GPx, GST and CAT assays, or in 20 mM of HEPES buffer containing 1 mM of EGTA, 210 mM of mannitol and 70 mM of sucrose (pH 7.2) for SOD assay. Enzyme activity was normalized against total protein. DBZIM was dissolved in DMSO, and TDBZIM was dissolved in H2O. The data were presented as mean and SEM, N=6, *^aP<0.05, *^bP<0.01, *^cP<0.005, and *^dP<0.0005, when compared to the vehicle control.
The activity of phase II anti-oxidant enzyme, GST, was assayed using a kit from Cayman Chemical. Protein samples were harvested in PBS buffer containing 1 mM of EDTA, and the protein concentration was determined by BCA assay. Total GST (cytosolic and microsomal) activity was assayed by measuring the conjugation of 1-chloro-2,4-dinitobenzene (CDNB) with reduced GSH, and monitored by an increase in absorbance at 340 nm. GST activity was expressed as nmol/min/mg protein.

For “1,3,5-tris(4-methyl-imidazolium)-linked cyclophane.3Br [TDBZIM]”, the “cell survival in 0.2% (v/v) DMSO” value in the test on primary HSCs (26 h) is “survived”; in the test on primary HSCs (over 93 h), “remained viable and proliferated to confluency”. Also, the “inhibition of IL-6 transcription” value was 37% with IL-6 (1 μM), 55% with IL-6 (10 μM) and 80% with IL-6 (100 μM). The “inhibition of IL-6 mRNA expression” value in the test on IL-6 (100 μM, 24 h) was determined as 52%.
Regarding `[Br-].c1ccc(Cn2cc[n+](Cc3ccccc3)c2)cc1` [DBZIM, 1,3-bisbenzylimidazolium bromide], the “enhancement of GST activity” value in the test on GST (100 μM) turned out to be 22%; in the test with GST (300 μM), 32%. Moreover, the “cell survival in 0.2% (v/v) DMSO” value in the test with primary HSCs (26 h) is “survived”; in the test on primary HSCs (over 93 h), “most cells died”. Moreover, the “inhibition of IL-6 transcription” value in the test on IL-6 (1 μM) was determined as 37%; with IL-6 (10 μM), 46%; in the test with IL-6 (100 μM), 53%; in the test on IL-6 (300 μM), 59%. The “suppression of IL-6 mRNA” value in the test on IL-6 (100 μM, shorter treatment than 48 h (8, 24 h)) was “did not show statistically significant suppression”.
Regarding “(−)-Epigallocatechin gallate [EGCG, reference compound]”, the “effect on GST activity (references)” value with GST (EGCG, NAC) is reported as “did not have much affect”.

(Values after patent US9072729B2, “Method for treating fibrosis and cancer with imidazolium and imidazolinium compounds” (Agency for Science, Technology and Research, priority 2008, dated 2015).)
